Test system: cat flea, Ctenocephalides felis
Test: Duration of control in dogs treated with ectoparasiticides at up to 3x the conventional dose against the cat flea (Example 6)
Assay type: in vivo
Details: metaflumizone 60 mg/kg (3×) spot-on, Day 128
Description: In this evaluation, 32 mixed breed male or female dogs, aged 1 to 10 years, were used. Dogs were not treated with an ectoparasiticide for 60 days prior to the study. No drugs, baths, shampoos or pesticides were given to the dogs during the preconditioning phase or during the course of the study other than what is described in the protocol. At least 36 dogs were preconditioned for 14 days. All dogs were bathed with noninsecticidal shampoo (Day −12 to −8). On Day −7, each dog was infested with 100 unfed cat fleas, Ctenocephalides felis. On Day −5, each dog was thoroughly examined and then combed to remove and count fleas. Dogs were selected for inclusion in the study on the basis of flea retention and/or behavior. The 32 dogs with the highest flea counts were selected for the study, except for exclusion of dogs deemed not easily handled. The dogs were blocked by flea number retained, and randomly allocated within blocks into 8 groups of 4 dogs.
Applications for Groups B-H were administered using disposable syringes. Each dog received a spot of the appropriate formulation to the skin (by syringe without a needle) at the dorsal midline between the shoulder blades. Group A was left untreated. […] Observations for post-treatment adverse reactions, skin irritation and behavior of test formulations were made at four hours following administration of treatments. Thereafter, dogs were observed once daily on Days 1-14 for formulation acceptability, adverse reactions, or signs of skin irritation following treatment. Daily observations of the physical condition of the animals were made throughout the trial.
Dogs were infested with 100 adult cat fleas, Ctenocephalides felis, on Day 14 and then examined for live fleas on Day 16. The dogs were re-infested/examined on Days 28/30, 56/58, 70/72, 84/86 and then infested and examined again at 2 week intervals until efficacy waned. At each infestation, 100 unfed adult fleas were applied along the lateral midline of each dog. The negative control group (Group A) was infested before the test compound groups. Fleas were recovered by examining and combing the groups in the same order. Combs were washed and rinsed with alcohol between dogs. Plastic gloves and aprons were changed between treatment groups.
Flea counts were transformed by log (count +1), and geometric means were used to calculate percent efficacy for the treatments using (Yc−Yt)/Yc*100, where Yc and Yt equal mean counts for control and treated groups, respectively.

N#Cc1ccc(CC(=NNC(=O)Nc2ccc(OC(F)(F)F)cc2)c2cccc(C(F)(F)F)c2)cc1 (mixture of isomers) [metaflumizone, (E,Z)-2-[2-(4-cyanophenyl)-1-[3-(trifluoromethyl)phenyl]ethylidene]-N-[4-(tri-fluoromethoxy)phenyl]hydrazinecarboxamide]
% Efficacy: 96.5%

Reference: patent US20080194642A1, “HIGH DOSE, LONG-ACTING ECTOPARASITICIDE FOR EXTENDED CONTROL” (Wyeth, priority 2007, published 2008)
